From ChEMBL document CHEMBL6083262, “Stereorandomized Oncocins with Preserved Ribosome Binding and Antibacterial Activity” (J Med Chem, 2024)
Values after ≈ are worked out from the molar mass of the structure shown. Active and inactive are the calls of the source. No cut-off for these calls is given here. Non-standard residues stand in square brackets, D forms with d. Residues, ends and D or L forms follow the SMILES beside them. ξ: configuration not given here. ξY = NC(Cc1ccc(O)cc1)C(=O)O; ξR = N=C(N)NCCCC(N)C(=O)O; ξD = NC(CC(=O)O)C(=O)O; ξN = NC(=O)CC(N)C(=O)O; ξI = CCC(C)C(N)C(=O)O; ξL = CC(C)CC(N)C(=O)O; ξK = NCCCCC(N)C(=O)O; ξV = CC(C)C(N)C(=O)O; ξP = O=C(O)C1CCCN1

Legend:
Klebsiella pneumoniae [1] = test: Bacteriostatic activity against Klebsiella pneumoniae at 8 times MIC in full muller hinton medium by Time-kill assay; assay type: functional, organism-based
Klebsiella pneumoniae [2] = test: Bacteriostatic activity against Klebsiella pneumoniae assessed as small intracellular vesicles at 8 times MIC in full muller hinton medium by transmission electron microscopic analysis; assay type: functional, organism-based
Pseudomonas aeruginosa [3] = test: Antibacterial activity against multidrug-resistant Pseudomonas aeruginosa clinical isolate ZEM9A incubated for 16 to 20 hrs in full muller hinton medium by broth microdilution method; assay type: functional; details: time 16-20 hrs
Escherichia coli [4] = test: Antimicrobial activity against Escherichia coli W3110 incubated for 16 to 20 hrs in full muller hinton medium by broth microdilution method; assay type: functional; details: time 16-20 hrs
rRNA = test: Binding affinity to [gamma32 P-ATP] labeled Escherichia coli MG1655 23S ribosomal RNA (5-CCCTTGGGACCTACTTC-3') at U2506 position assessed as increase in band intensity at 1 uM incubated for 2.5 hrs in full muller hinton medium by CMCT based gel electrophoresis; assay type: nucleic-acid assay
Staphylococcus aureus [5] = test: Antimicrobial activity against methicillin-resistant Staphylococcus aureus COL incubated for 16 to 20 hrs in full muller hinton medium by broth microdilution method; assay type: functional; details: time 16-20 hrs
Escherichia coli [6] = test: Bacteriostatic activity against Escherichia coli assessed as small intracellular vesicles at 8 times MIC in full muller hinton medium by transmission electron microscopic analysis; assay type: functional, organism-based
Escherichia coli [7] = test: Bacteriostatic activity against Escherichia coli assessed as membrane perturbation at 8 times MIC in full muller hinton medium by transmission electron microscopic analysis; assay type: functional, organism-based
Klebsiella pneumoniae [8] = test: Bacteriostatic activity against Klebsiella pneumoniae assessed as membrane perturbation at 8 times MIC in full muller hinton medium by transmission electron microscopic analysis; assay type: functional, organism-based
Enterobacter cloacae [9] = test: Antibacterial activity against multidrug-resistant Enterobacter cloacae incubated for 16 to 20 hrs in 12.5 % muller hinton medium by broth microdilution method; assay type: functional; details: time 16-20 hrs
[10] = Hemolytic activity in human RBC incubated for 4 hrs; assay type: toxicity, cell-based; details: erythrocyte
Lipid bilayer [11] = test: Induction of membrane disruption in egg yolk phosphatidyl choline at 10 ug/ml by measuring vesicle leakage; details: dose 10.0 µg/ml
Klebsiella pneumoniae [12] = test: Bacteriostatic activity against Klebsiella pneumoniae assessed as detachment of inner membrane from outer membrane by measuring a large void at 8 times MIC in full muller hinton medium by transmission electron microscopic analysis; assay type: functional, organism-based
Staphylococcus aureus [13] = test: Antimicrobial activity against methicillin-resistant Staphylococcus aureus COL incubated for 16 to 20 hrs in 12.5 % muller hinton medium by broth microdilution method; assay type: functional; details: time 16-20 hrs
Pseudomonas aeruginosa [14] = test: Antimicrobial activity against Pseudomonas aeruginosa PAO1 incubated for 16 to 20 hrs in 12.5 % muller hinton medium by broth microdilution method; assay type: functional; details: time 16-20 hrs
Escherichia coli [15] = test: Bacteriostatic activity against Escherichia coli assessed as detachment of inner membrane from outer membrane by measuring a large void at 8 times MIC in full muller hinton medium by transmission electron microscopic analysis; assay type: functional, organism-based
Pseudomonas aeruginosa [16] = test: Antibacterial activity against multidrug-resistant Pseudomonas aeruginosa PA14 incubated for 16 to 20 hrs in full muller hinton medium by broth microdilution method; assay type: functional; details: time 16-20 hrs
Escherichia coli [17] = test: Bacteriostatic activity against Escherichia coli at 8 times MIC in full muller hinton medium by Time-kill assay; assay type: functional, organism-based
Lipid bilayer [18] = test: Induction of membrane disruption in egg yolk phosphatidyl glycerol at 10 ug/ml by measuring vesicle leakage; details: dose 10.0 µg/ml
Pseudomonas aeruginosa [19] = test: Antibacterial activity against multidrug-resistant Pseudomonas aeruginosa PA14 2P4 harboring pmrB mutant incubated for 16 to 20 hrs in full muller hinton medium by broth microdilution method; assay type: functional; details: time 16-20 hrs
Enterobacter cloacae [20] = test: Antibacterial activity against multidrug-resistant Enterobacter cloacae incubated for 16 to 20 hrs in full muller hinton medium by broth microdilution method; assay type: functional; details: time 16-20 hrs
Acinetobacter baumannii = test: Antimicrobial activity against Acinetobacter baumannii ATCC 19606 incubated for 16 to 20 hrs in 12.5 % muller hinton medium by broth microdilution method; assay type: functional; details: time 16-20 hrs
Escherichia coli [21] = test: Antimicrobial activity against Escherichia coli W3110 incubated for 16 to 20 hrs in 12.5 % muller hinton medium by broth microdilution method; assay type: functional; details: time 16-20 hrs
Pseudomonas aeruginosa [22] = test: Antimicrobial activity against Pseudomonas aeruginosa PAO1 incubated for 16 to 20 hrs in full muller hinton medium by broth microdilution method; assay type: functional; details: time 16-20 hrs
Klebsiella pneumoniae [23] = test: Antibacterial activity against multidrug-resistant Klebsiella pneumoniae clinical isolate OXA-48 incubated for 16 to 20 hrs in 12.5 % muller hinton medium by broth microdilution method; assay type: functional; details: time 16-20 hrs
Klebsiella pneumoniae [24] = test: Antimicrobial activity against Klebsiella pneumoniae NCTC 418 incubated for 16 to 20 hrs in 12.5 % muller hinton medium by broth microdilution method; assay type: functional; details: time 16-20 hrs
Pseudomonas aeruginosa [25] = test: Antibacterial activity against multidrug-resistant Pseudomonas aeruginosa PA14 4.13 harboring phoQ mutant incubated for 16 to 20 hrs in full muller hinton medium by broth microdilution method; assay type: functional; details: time 16-20 hrs
Pseudomonas aeruginosa [26] = test: Antibacterial activity against multidrug-resistant Pseudomonas aeruginosa PA14 4.18 harboring pmrB mutant incubated for 16 to 20 hrs in full muller hinton medium by broth microdilution method; assay type: functional; details: time 16-20 hrs
Klebsiella pneumoniae [27] = test: Antimicrobial activity against Klebsiella pneumoniae NCTC 418 incubated for 16 to 20 hrs in full muller hinton medium by broth microdilution method; assay type: functional; details: time 16-20 hrs
Klebsiella pneumoniae [28] = test: Antibacterial activity against multidrug-resistant Klebsiella pneumoniae clinical isolate OXA-48 incubated for 16 to 20 hrs in full muller hinton medium by broth microdilution method; assay type: functional; details: time 16-20 hrs
Pseudomonas aeruginosa [29] = test: Antibacterial activity against multidrug-resistant Pseudomonas aeruginosa clinical isolate ZEM-1A incubated for 16 to 20 hrs in full muller hinton medium by broth microdilution method; assay type: functional; details: time 16-20 hrs
Pseudomonas aeruginosa [30] = test: Antibacterial activity against multidrug-resistant Pseudomonas aeruginosa clinical isolate ZEM-1A incubated for 16 to 20 hrs in 12.5 % muller hinton medium by broth microdilution method; assay type: functional; details: time 16-20 hrs

| SMILES | Activity (Klebsiella pneumoniae [1]) | Activity (Klebsiella pneumoniae [2]) | MIC (Pseudomonas aeruginosa [3]) | MIC (Escherichia coli [4]) | Activity (rRNA) | MIC (Staphylococcus aureus [5]) | Activity (Escherichia coli [6]) | Activity (Escherichia coli [7]) | Activity (Klebsiella pneumoniae [8]) | MIC (Enterobacter cloacae [9]) | MHC [10] | Activity (Lipid bilayer [11]) | Activity (Klebsiella pneumoniae [12]) | MIC (Staphylococcus aureus [13]) | MIC (Pseudomonas aeruginosa [14]) | Activity (Escherichia coli [15]) | MIC (Pseudomonas aeruginosa [16]) | Activity (Escherichia coli [17]) | Activity (Lipid bilayer [18]) | MIC (Pseudomonas aeruginosa [19]) | other results |
| --- | --- | --- | --- | --- | --- | --- | --- | --- | --- | --- | --- | --- | --- | --- | --- | --- | --- | --- | --- | --- | --- |
| CCC(C)C(NC(=O)C(CCCNC(=N)N)NC(=O)[C@H](CCCNC(=N)N)NC(=O)[C@@H]1CCCN1C(=O)[C@@H]1CCCN1C(=O)[C@H](CCCNC(=N)N)NC(=O)[C@@H]1CCCN1C(=O)[C@H](CCCNC(=N)N)NC(=O)[C@@H]1CCCN1C(=O)[C@H](CC(C)C)NC(=O)[C@H](Cc1ccc(O)cc1)NC(=O)[C@@H]1CCCN1C(=O)[C@@H]1CCCN1C(=O)[C@H](CCCCN)NC(=O)[C@H](CC(=O)O)NC(=O)[C@@H](N)C(C)C)C(=O)NC(Cc1ccc(O)cc1)C(=O)NC(CC(N)=O)C(=O)NC(CCCNC(=N)N)C(N)=O (stereo not given in full) (H-VDKPPYLPRPRPPR[ξR][ξI][ξY][ξN][ξR]-NH2) | Active | Active | > 64 µg/mL | 4 µg/mL (≈ 1.67 µM) | Active | > 64 µg/mL | Active | Active; Few Membrane Perturbation Observed | Active; Few Membrane Perturbation Observed | 1 µg/mL (≈ 0.418 µM) | > 1000 µg/mL | Active | Active | > 16 µg/mL | 8 µg/mL (≈ 3.35 µM) | Active | > 64 µg/mL | Active | Active | > 64 µg/mL |  |
| CCC(C)C(NC(=O)C(CCCNC(=N)N)NC(=O)C(CCCNC(=N)N)NC(=O)C1CCCN1C(=O)C1CCCN1C(=O)[C@H](CCCNC(=N)N)NC(=O)[C@@H]1CCCN1C(=O)[C@H](CCCNC(=N)N)NC(=O)[C@@H]1CCCN1C(=O)[C@H](CC(C)C)NC(=O)[C@H](Cc1ccc(O)cc1)NC(=O)[C@@H]1CCCN1C(=O)[C@@H]1CCCN1C(=O)[C@H](CCCCN)NC(=O)[C@H](CC(=O)O)NC(=O)[C@@H](N)C(C)C)C(=O)NC(Cc1ccc(O)cc1)C(=O)NC(CC(N)=O)C(=O)NC(CCCNC(=N)N)C(N)=O (stereo not given in full) (H-VDKPPYLPRPR[ξP][ξP][ξR][ξR][ξI][ξY][ξN][ξR]-NH2) | Active | Active | > 64 µg/mL |  | Active | > 64 µg/mL | Active | Active; Few Membrane Perturbation Observed | Active; Few Membrane Perturbation Observed | 0.5 µg/mL (≈ 0.209 µM) | > 1000 µg/mL | Active | Active | > 16 µg/mL |  | Active | > 64 µg/mL | Active | Active | > 64 µg/mL | MIC (Enterobacter cloacae [20]): > 64 µg/mL |
| CCC(C)C(NC(=O)C(CCCNC(=N)N)NC(=O)C(CCCNC(=N)N)NC(=O)C1CCCN1C(=O)C1CCCN1C(=O)C(CCCNC(=N)N)NC(=O)[C@@H]1CCCN1C(=O)[C@H](CCCNC(=N)N)NC(=O)[C@@H]1CCCN1C(=O)[C@H](CC(C)C)NC(=O)[C@H](Cc1ccc(O)cc1)NC(=O)[C@@H]1CCCN1C(=O)[C@@H]1CCCN1C(=O)[C@H](CCCCN)NC(=O)[C@H](CC(=O)O)NC(=O)[C@@H](N)C(C)C)C(=O)NC(Cc1ccc(O)cc1)C(=O)NC(CC(N)=O)C(=O)NC(CCCNC(=N)N)C(N)=O (stereo not given in full) (H-VDKPPYLPRP[ξR][ξP][ξP][ξR][ξR][ξI][ξY][ξN][ξR]-NH2) | Active | Active | > 64 µg/mL |  | Active | > 64 µg/mL | Active | Active; Few Membrane Perturbation Observed | Active; Few Membrane Perturbation Observed |  | > 1000 µg/mL | Active | Active |  |  | Active | > 64 µg/mL | Active | Active | > 64 µg/mL |  |
| CCC(C)C(NC(=O)C(CCCNC(=N)N)NC(=O)[C@H](CCCNC(=N)N)NC(=O)[C@@H]1CCCN1C(=O)[C@@H]1CCCN1C(=O)[C@H](CCCNC(=N)N)NC(=O)[C@@H]1CCCN1C(=O)[C@H](CCCNC(=N)N)NC(=O)[C@@H]1CCCN1C(=O)[C@H](CC(C)C)NC(=O)[C@H](Cc1ccc(O)cc1)NC(=O)[C@@H]1CCCN1C(=O)[C@@H]1CCCN1C(=O)C(CCCCN)NC(=O)C(CC(=O)O)NC(=O)C(N)C(C)C)C(=O)NC(Cc1ccc(O)cc1)C(=O)NC(CC(N)=O)C(=O)NC(CCCNC(=N)N)C(N)=O (stereo not given in full) (H-[ξV][ξD][ξK]PPYLPRPRPPR[ξR][ξI][ξY][ξN][ξR]-NH2) |  |  |  | 8 µg/mL (≈ 3.35 µM) |  | > 64 µg/mL |  |  |  |  | > 1000 µg/mL |  |  |  |  |  |  |  |  |  | MIC (Acinetobacter baumannii): 4 µg/mL (≈ 1.67 µM); MIC (Escherichia coli [21]): 1 µg/mL (≈ 0.418 µM); MIC (Pseudomonas aeruginosa [22]): > 64 µg/mL |
| CC[C@H](C)[C@H](NC(=O)[C@H](CCCNC(=N)N)NC(=O)C(CCCNC(=N)N)NC(=O)C1CCCN1C(=O)C1CCCN1C(=O)C(CCCNC(=N)N)NC(=O)C1CCCN1C(=O)C(CCCNC(=N)N)NC(=O)C1CCCN1C(=O)C(CC(C)C)NC(=O)C(Cc1ccc(O)cc1)NC(=O)C1CCCN1C(=O)C1CCCN1C(=O)C(CCCCN)NC(=O)C(CC(=O)O)NC(=O)C(N)C(C)C)C(=O)N[C@@H](Cc1ccc(O)cc1)C(=O)N[C@@H](CC(N)=O)C(=O)N[C@@H](CCCNC(=N)N)C(N)=O (stereo not given in full) (H-[ξV][ξD][ξK][ξP][ξP][ξY][ξL][ξP][ξR][ξP][ξR][ξP][ξP][ξR]RIYNR-NH2) |  |  | > 64 µg/mL |  | inactive | > 64 µg/mL |  |  |  |  | > 1000 µg/mL |  |  | > 64 µg/mL | > 16 µg/mL |  | > 64 µg/mL |  |  | > 64 µg/mL | MIC (Klebsiella pneumoniae [23]): > 64 µg/mL; MIC (Klebsiella pneumoniae [24]): > 16 µg/mL; MIC (Pseudomonas aeruginosa [25]): > 64 µg/mL; MIC (Pseudomonas aeruginosa [26]): > 64 µg/mL; MIC (Klebsiella pneumoniae [27]): > 64 µg/mL; MIC (Escherichia coli [21]): 4 µg/mL (≈ 1.67 µM); MIC (Klebsiella pneumoniae [28]): > 64 µg/mL; MIC (Pseudomonas aeruginosa [29]): > 64 µg/mL; MIC (Enterobacter cloacae [20]): > 64 µg/mL; MIC (Pseudomonas aeruginosa [22]): > 64 µg/mL; MIC (Pseudomonas aeruginosa [30]): > 64 µg/mL |
